In patent EP2030621A1, “Novel substituted pyrimidines as cysteine protease inhibitors” (GLAXO GROUP LIMITED, priority 2007, dated 2009):
Where a name gives a salt, the structure may show the parent alone.

These molecules were tested against Falcipain-3 (Plasmodium falciparum, UniProt Q8IIL0) (assay: Falcipain-3 enzymatic assay (fluorogenic peptide substrate, quenched endpoint read)). Conditions: not given.
Sequence of Falcipain-3 (Q8IIL0 243-492): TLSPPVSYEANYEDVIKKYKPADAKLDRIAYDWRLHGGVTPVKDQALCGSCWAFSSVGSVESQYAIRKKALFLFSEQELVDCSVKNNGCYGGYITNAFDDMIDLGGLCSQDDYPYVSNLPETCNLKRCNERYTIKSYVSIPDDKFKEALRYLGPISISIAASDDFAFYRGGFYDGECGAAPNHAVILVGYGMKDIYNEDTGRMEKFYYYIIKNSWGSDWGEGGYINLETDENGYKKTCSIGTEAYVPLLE
Type: biochemical
Method: 1 Determination of Falcipain-2, Falcipain-3, Vivapain-2, Cathepsin K Cathepsin S, Cathepsin L, and Cathepsin B proteolytic catalytic activity
Assays for Falcipain-2, Faicipain-3, and Vivapain-2 are carried out with parasitic recombinant enzymes. Cathepsins K, S, L, and B are carried out with human recombinant enzymes. Standard assay conditions for the determination of kinetic constants used a fluorogenic peptide substrate, typically H-D-VLR-AFC (Falcipain-2, Falcipain-3, Vivapain-2), Z-FR-AFC (Cathepsin K, L, B), or KQKLR-AMC (Cathepsin S) and are determined in 100 mM sodium acetate, pH 5.5, containing 10 mM DTT and 0.5 mM CHAPS (Falcipain-2, Falcipain-3, Vivapain-2), and 100 mM sodium acetate, pH 5.5, containing 5 mM L-cysteine, 1mM CHAPS and 5mM EDTA (Cathepsin K, L, B), or 50mM MES, pH 6.5, containing 0.5mM CHAPS, 10mM L-CYS, 5mM EDTA (Cathepsin S). Stock substrate solutions are prepared at 20 mM in DMSO. The activity assays contained 30 uM substrate (Falcipain-2, Falcipain-3, Vivapain-2), 20 uM substrate (Cathepsin K), 25uM substrate (Cathepsin B), 5uM substrate (Cathepsin L), and 30uM substrate (Cathepsin S). All assays contained 1% DMSO. […] All assays are conducted at ambient temperature as end point assays being quenched after 60 minutes with the exception of Cathepsin S at 90 minutes, with 16.6 uM E-64 in 1% DMSO. Product formation (AFC or AMC) is determined from fluorescence (excitation at 405nm; emission at 530nm, AFC, or excitation at 360 nm; emission at 460 nm, AMC) monitored with a LJL Aquest (Molecular Devices) fluorescent plate reader. In the case of kinetic reads (used in mechanism of action studies), the reaction is not quenched but is read in the plate reader every 3 minutes for approximately 90 minutes. In addition, the mechanism of action studies for Falcipain-2 utilize Z-LR-AMC as the substrate. Product formation is determined from the fluorescence of AMC, measured with a LJL Acquest (Molecular Devices) fluorescent plate reader (excitation at 360nm; emission at 460nm).
Potential inhibitors are evaluated using the quenched read (endpoint) method. Assays are carried out in the presence of variable concentrations of test compound. Reactions are initiated by addition of enzyme and substrate to wells containing inhibitor stamped in 100% DMSO. For endpoint assays, the reaction is quenched with the addition of E64. Dose response data is fit to an IC50 curve with preset fitting tools according to equation 1: y = a + (b-a)/(1 + (10^x /10^c ())^d ) [formula] where y is the response at a particular inhibitor concentration x, a is the minimum response value, b is the maximum response value, c is the IC50, and d is the slope of the IC50 curve. […]. For a more direct measurement of the KI and the binding mechanism, we performed mechanism of action studies that included a titration of substrate and inhibitor with a kinetic read. […]
`CN1CCC(CN2CCN(Cc3cccc(C(=O)NN(c4nc(C#N)ncc4Br)C4CCCC4)c3)CC2)CC1` [Example 15, N'-(5-bromo-2-cyano-4-pyrimidinyl)-N'-cyclopentyl-3-({4-[(1-methyl-4-piperidinyl)methyl]-1-piperazinyl}methyl)benzohydrazide trifluoroacetate] gave an IC50 of 15 to 150 nM.

What follows are molecules tested on Plasmodium falciparum parasite (assay: Whole cell assay: whole cell activity against the parasite). Conditions: not given.
Type: cell-based
Source text: Compounds can be evaluated for whole cell actvity against the Plasmadium falciparum parasite according to the procedure described in Sijwali S. and Rosenthal P. J., (2004) Proceedings of the National Academy of Sciences of the United States of America (PNAS) 101(13), 4384-4389 (see in particular "Measurement of Parasite Growth rates and Inhibitor Sensitivity" on page 4385); IC50 values can be calculated as described in Singh A. and Rosenthal P. J., (2001) Antimicrobial Agents and Chemotherapy 45(3), 949-951 (see in particular page 950, first column); synchronised parasites can be prepared as described in Divo A. A. et al., (1985) Protozool. 32, 59-64. 3) In vitro models to evaluate activity against bone metastasis
Work on `CC(=O)N1CCC(N(NC(=O)OC(C)(C)C)c2nc(C#N)ncc2Br)CC1` [Example 79, 1,1-dimethylethyl 2-(1-acetyl-4-plperidinyl)-2-(5-bromo-2-cyano-4-pyrimidinyl)hydrazinecarboxylate] yielded an IC50 of 15 to 150 nM.

Same assay, conditions: Plasmodium falciparum
Work on `CN1CCC(CN2CCN(Cc3cccc(C(=O)NN(c4nc(C#N)ncc4Br)C4CCCC4)c3)CC2)CC1` [Example 15, N'-(5-bromo-2-cyano-4-pyrimidinyl)-N'-cyclopentyl-3-({4-[(1-methyl-4-piperidinyl)methyl]-1-piperazinyl}methyl)benzohydrazide trifluoroacetate] yielded an IC50 of 2.5 to 15 nM.
With `CN(CCO)Cc1ccc(C(=O)NN(c2nc(C#N)ncc2Cl)C2CCCC2)cc1` [Example 58, N'-(5-chloro-2-cyano-4-pyrimidinyl)-N'-cyclopentyl-4-{[(2-hydroxyethy)(methyl)amino]methyl}benzohydrazide trifluoroacetate] the IC50 was 15 to 150 nM.
`CN1CCCC(CN2CCN(Cc3cccc(C(=O)NN(c4nc(C#N)ncc4Br)C4CCCC4)c3)CC2)C1` (centres unmarked) [Example 14, N'-(5-bromo-2-cyano-4-pyrimidinyl)-N'-cyclopentyl-3-({4-[(1-methyl-3-piperidinyl)methyl]-1-piperazinyl}methyl)benzohydrazide trifluoroacetate] gave an IC50 of 2.5 to 15 nM.
`CN1CCN(Cc2ccc(-c3ccc(C(=O)NN(c4nc(C#N)ncc4Br)C4CCCC4)cn3)cc2)CC1` [Example 46, N'-(5-bromo-2-cyano-4-pyrimidinyl)-N'-cyclopentyl-6-{4-[(4-methyl-1-piperazinyl)methyl]phenyl}-3-pyridinecarbohydrazide trifluoroacetate] was tested, and the IC50 was 2.5 to 15 nM.
Molecule `CN1CCN(c2ccc(C(=O)NN(c3nc(C#N)ncc3Cl)C3CCCC3)cc2)CC1` [Example 52, N'-(5-chloro-2-cyano-4-pyrimidinyl)-N'-cyclopentyl-4-(4-methyl-1-piperazinyl)benzohydrazide trifluoroacetate] has an IC50 of 15 to 150 nM.
With `CN1CCN(C(=O)C2CCN(Cc3cccc(C(=O)NN(c4nc(C#N)ncc4Br)C4CCCC4)c3)CC2)CC1` [Example 12, N'-(5-bromo-2-cyano-4-pyrimidinyl)-N'-cyclopentyl-3-({4-[(4-methyl-1-piperazinyl)carbonyl]-1-piperidinyl}methyl)benzohydrazide trifluoroacetate] the IC50 was 2.5 to 15 nM.
In the case of `CN1CCN(Cc2ccc(C(=O)NN(CC(C)(C)C)c3nc(C#N)ncc3Br)cc2)CC1` [comparative Example 39, N'-(5-bromo-2-cyano-4-pyrimidinyl)-N'-(2,2-dimethylpropyl)-4-[(4-methyl-1-piperazinyl)methyl]benzohydrazide trifluoroacetate, reference compound], the IC50 is reported as > 400 nM.
`CN1CCC(CN2CCN(Cc3ccc(C(=O)NN(c4nc(C#N)ncc4Cl)C4CCOCC4)cc3)CC2)CC1` [Example 35, N'-(5-Chloro-2-cyano-4-pyrimidinyl)-4-({4-[(1-methyl-4-piperidiny)methyl]-1-piperazinyl}methyl)-N'-(tetrahydro-2H-pyran-4-yl)benzohydrazide trifluoroacetate] showed an IC50 of 15 to 150 nM.
`CN1CCCC(CN2CCN(Cc3ccc(C(=O)NN(c4nc(C#N)ncc4Br)C4CCCC4)cc3)CC2)C1` (centres unmarked) [Example 8, N'-(5-bromo-2-cyano-4-pyrimidinyl)-N'-cyclopentyl-4-({4-[(1-methyl-3-piperidinyl)methyl]-1-piperazinyl}methyl)benzohydrazide trifluoroacetate] showed an IC50 of 2.5 to 15 nM.
Molecule `CCN(Cc1ccc(C(=O)NN(c2nc(C#N)ncc2Cl)C2CCCC2)cc1)C(C)C` [Example 68, N'-(5-chloro-2-cyano-4-pyrimidinyl)-N'-cyclopentyl-4-{[ethyl(1-methylethyl)amino]methyl}benzohydrazide trifluoroacetate] has an IC50 of 2.5 to 15 nM.
Molecule `C[C@@H]1CCC[C@H]1N(NC(=O)c1ccc(CN2CCN(C)CC2)cc1)c1nc(C#N)ncc1Br` (racemic) [Example 3, N'-(5-bromo-2-cyano-4-pyrimidinyl)-N'-[(1R,2R+1S,2S)-2-methylcyclopentyl]-4-[(4-methyl-1-piperazinyl)methyl]benzohydrazide trifluoroacetate] has an IC50 of 2.5 to 15 nM.
With `CN1CCN(C(=O)C2CCN(Cc3cccc(C(=O)NN(c4nc(C#N)ncc4Br)C4CCCCC4)c3)CC2)CC1` [Example 23, N'-(5-bromo-2-cyano-4-pyrimidinyl)-N'-cyclohexyl-3-[{4-[(4-methyl-1-piperazinyl)carbonyl]-1-piperidinyl}methyl)benzohydrazide trifluoroacetate] the IC50 was 2.5 to 15 nM.
In the case of `N#Cc1ncc(Br)c(N(NC(=O)c2ccc(CN3CC(N4CCCC4)C3)cc2)C2CCOCC2)n1` [Example 33, N'-(5-bromo-2-cyano-4-pyrimidinyl)-4-{[3-(1-pyrrolidinyl)-1-azetidinyl]methyl}-N'-(tetrahydro-2H-pyran-4-yl)benzohydrazide trifluoroacetate], the IC50 is reported as 15 to 150 nM.
With `CN1CCN(Cc2ccc(C(=O)NN(c3nc(C#N)ncc3Cl)C3CCOCC3)cc2)CC1` [Example 67, N'-(5-chloro-2-cyano-4-pyrimidinyl)-4-[(4-methyl-1-piperazinyl)methyl]-N'-(tetrahydro-2H-pyran-4-yl)benzohydrazide trifluoroacetate] the IC50 was 15 to 150 nM.
`CCCCCCN(C)Cc1ccc(C(=O)NN(c2nc(C#N)ncc2Cl)C2CCCC2)cc1` [Example 56, N'-(5-chloro-2-cyano-4-pyrimidinyl)-N'-cyclopentyl-4-{[hexyl(methyl)amino]methyl}benzohydrazide trifluoroacetate] showed an IC50 of 15 to 150 nM.
Molecule `CN(CCC1OCCO1)Cc1ccc(C(=O)NN(c2nc(C#N)ncc2Cl)C2CCCC2)cc1` [Example 61, N'-(5-chloro-2-cyano-4-pyrimidinyl)-N'-cyclopentyl-4-{[[2-(1,3-dioxolan-2-yl)ethyl](methyl)amino]methyl}benzohydrazide trifluoroacetate] has an IC50 of 15 to 150 nM.
`CN(CCCc1ccccc1)Cc1ccc(C(=O)NN(c2nc(C#N)ncc2Cl)C2CCCC2)cc1` [Example 64, N'-(5-chloro-2-cyano-4-pyrimidinyl)-N'-cyclopentyl-4-{[methyl(3-phenylpropyl)amino]methyl}benzohydrazide trifluoroacetate] was tested, and the IC50 was 15 to 150 nM.
With `CN(Cc1ccc(C(=O)NN(c2nc(C#N)ncc2Cl)C2CCCC2)cc1)C1CCCCC1` [Example 53, N'-(5-chloro-2-cyano-4-pyrimidinyl)-4-{[cyclohexyl(methyl)amino]methyl}-N'-cyclopentylbenzohydrazide trifluoroacetate] the IC50 was 2.5 to 15 nM.
For `CN1CCN(Cc2cccc(-c3cncc(C(=O)NN(c4nc(C#N)ncc4Br)C4CCCCC4)c3)c2)CC1` [Example 47, N'-(5-bromo-2-cyano-4-pyrimidinyl)-N'-cyclohexyl-5-{3-[(4-methyl-1-piperazinyl)methyl]phenyl}-3-pyridinecarbohydrazide trifluoroacetate], the IC50 was 2.5 to 15 nM.
`CCCN1CCN(c2ccc(C(=O)NN(c3nc(C#N)ncc3Br)C3CCCCC3)cc2)CC1` [Example 80, N'-(5-bromo-2-cyano-4-pyrimidinyl)-N'-cyclohexyl-4-(4-propyl-1-piperazinyl)benzohydrazide trifluoroacetate] was tested, and the IC50 was 15 to 150 nM.
In the case of `CN1CCN(C(=O)C2CCN(Cc3ccc(C(=O)NN(c4nc(C#N)ncc4Br)C4CCOCC4)cc3)CC2)CC1` [Example 32, N'-(5-Bromo-2-cyano-4-pyrimidinyl)-4-({4-[(4-methyl-1-piperazinyl)carbonyl]-1-piperidinyl}methyl)-N'-(tetrahydro-2H-pyran-4-yl)benzohydrazide trifluoroacetate], the IC50 is reported as 15 to 150 nM.
